Results on two compounds are retold here after PMC7940618, “Specific inhibition of the Survivin–CRM1 interaction by peptide-modified molecular tweezers” (Nature Communications, 2021).

For one test, the target named is T1, Survivin–CRM1 complex (Homo sapiens, UniProt O15392).
T1 construct: expressed in transfected cells; host or cells: 293T cells (Survivin142-HA); E. coli soluBL21 (GST-CRM1, RanQ69L)
Put plainly: Pull-down with 293T lysate (Survivin142-HA), GST-CRM1 bait, RanQ69L, dGTP. Particulars: pull-down, tweezer 0.01 to 200 µM, 293T lysate. It is filed as binding. Here is the method:
We next investigated whether tweezers inhibit the Survivin–CRM1 complex formation in vitro. The effects of the unmodified and peptide-linked tweezers were analyzed via pull-down experiments with 293T lysates containing overexpressed HA-tagged Survivin142, recombinant GST-CRM1 as bait protein, and tweezers (Fig. 6). The parent and ELTL-linked tweezer required 10–50 µM to disrupt the Survivin–CRM1 complex. […] In order to provide experimental evidence for the sequence selectivity of the TW-ELTLGEFL ligand, a scrambled analog was synthesized and clicked to the tweezer, resulting in the hybrid molecule TW-LFEEGLLT (SI1, SI2, and SI10). […] Instead, the slight chemical shift perturbations might be due to the spatial proximity of the peptide moiety to the anchoring residue. All those results strongly indicate that the additional binding energy from the NES interface was lost due to scrambling and thus point toward specific recognition as the reason for increased selectivity and interference with the Survivin–CRM1 interaction. Of note, very high tweezer concentrations (100–200 µM) also weakened GST-CRM1 binding to GSH-Sepharose beads, most likely by low-affinity binding to the GST protein.
All pull-down assays were performed at room temperature in pull-down buffer (PBS, pH 7.4, 1 mM DTT, 0.02 Triton X-100). GST fusion proteins were immobilized on 50 μL GSH-coated Sepharose 4B beads from GE Healthcare. The beads were prior equilibrated and blocked with 500 μL pull-down blocking buffer (PBS, pH 7.4, 1 (w/v) BSA, 1 mM DTT, 0.02 (v/v) Triton X-100) for 1 h to prevent unspecific binding.
For analysis of the effective inhibitory tweezer concentration, 200 μg 293T lysate with overexpressed Survivin142-HA was preincubated without ligand or with different concentrations (10 nM to 200 μM) of unmodified tweezer TW, TW-ELTL, TW-ELTLGEFL, or TW-LFEEGLLT for 1 h and then mixed with 35 μg GST-CRM1, 55 μg RanQ69L, and 2 mM dGTP. GSH-beads were incubated with this protein mixture for 2 h under rotation. […]
Samples of input and beads taken during pull-down experiments were ran on 12.5 SDS gels and transferred onto 0.2 µM PVDF membranes (Amersham Hybond P 0.2) using a PerfectBlue™ tank electro blotter (Peqlab) at 350 mA for 150 min. […] Chemiluminescence was detected and imaged using the Pierce ECL Plus Western Blotting Substrate kit (Thermo Fisher Scientific) and Chemidoc system (Bio-Rad) or film processor Cawomat 2000 IR (CAWO). Western blots were analyzed by densitometric analysis with ImageJ version 1.52p (U.S. National Institutes of Health), measuring the mean gray intensity of protein bands. […]

Another test deals with T2, Survivin120 (Homo sapiens, UniProt O15392).
T2 construct: the only published NMR structure originated from a truncated Survivin (aa 1-120) with improved solubility; GST with PreScission site (N); made in house; host or cells: Escherichia coli soluBL21
The experiment in a line: Reverse ITC titration (tweezer into Survivin120). It is filed as binding. The conditions noted are these: tweezer added to constant Survivin. Here is the method:
ITC was performed with a MicroCal iTC200 from Malvern Panalytical in PBS, pH 7.4 at 25 °C with molecular tweezers in the cell and Survivin120 in the titration syringe. The protein was dialyzed overnight at 4 °C against the PBS buffer. Ligands were dissolved in the respective dialysis buffer. Then, 300 µM TW were titrated with 300 µM Survivin120 WT or 321 µM Survivin120 K90/103T. Then, 100 µM TW-ELTL, TW-ELTLGEFL, or TW-LFEEGLLT was titrated with 1.2 mM Survivin120 WT or 2.5 mM Survivin120 K90/103T. For reverse titrations, either 33.3 or 34.4 µM Survivin120 in the cell was titrated with 5 mM TW or TW-ELTL in the syringe, respectively. All titrations were performed in PBS, pH 7.4 at 25 °C. Then, 1.5 μL injections were used with 120 s spacing time between injections. The injection rate was set to 0.5 µL/s and the reference power was 5 µcal/s. ITC thermograms were fitted to a one set of sites model with the software Origin (v7.0552) provided with the instrument. Heat of dilution was subtracted as constant from each data point.
Supplementary Figure SI8: Reverse ITC titrations. Titration of 33.3 μM (a) and 34,4 µM (b) Survivin120 in the cell with 5 mM unmodified tweezer TW (a) and TW-ELTL (b) in the syringe.
All titrations (n = 1) were performed in PBS, pH 7.4 at 25 °C. Top row: raw heating power over time subtracted by control heating power of Survivin120 titration into PBS. […]

On the set-up of test [1]: method as in PMID 23750919. Particulars: read-out: KD, affinity toward lysine; cited from earlier work.

T2 sequence (O15392 1-120): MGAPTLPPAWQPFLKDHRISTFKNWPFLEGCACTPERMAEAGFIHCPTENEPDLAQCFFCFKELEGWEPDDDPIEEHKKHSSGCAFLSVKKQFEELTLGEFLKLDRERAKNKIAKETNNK
T1 sequence (O15392 whole entry, one chain of several): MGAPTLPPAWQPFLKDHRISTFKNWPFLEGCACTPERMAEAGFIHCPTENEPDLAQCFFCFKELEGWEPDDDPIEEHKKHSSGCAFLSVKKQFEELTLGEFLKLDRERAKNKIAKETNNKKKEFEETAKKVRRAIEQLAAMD

Usually Kd stands for the free concentration of one partner at which half of the binding sites on the other are occupied at equilibrium, for simple one-to-one binding. In the case of `O=P(O)(O)Oc1c2c(c(OP(=O)(O)O)c3c1C1CC3c3cc4c(cc31)C1CC4c3ccccc31)C1CC2c2cc3c(cc21)C1CC3c2ccccc21` [TW, reference compound], at Survivin–CRM1 complex, the “concentration required to disrupt the Survivin–CRM1 complex” value lay in the range of 10 to 50 µM. The “tweezer molecules accommodated on the protein surface (kink at fold tweezer excess)” value at Survivin120 is recorded as 4–5. The Kd in test [1] was 17 µM.
Consider `CC(C)C[C@H](NC(=O)[C@@H](NC(=O)[C@H](CC(C)C)NC(=O)[C@H](CCC(=O)O)NC(=O)Cn1cc(CCOP(=O)(O)Oc2c3c(c(OP(=O)(O)O)c4c2[C@H]2C[C@@H]4c4cc5c(cc42)[C@H]2C[C@@H]5c4ccccc42)[C@H]2C[C@@H]3c3cc4c(cc32)[C@H]2C[C@@H]4c3ccccc32)nn1)[C@@H](C)O)C(=O)O` [TW-ELTL], for which, at Survivin–CRM1 complex, the “concentration required to disrupt the Survivin–CRM1 complex” value is 10 to 50 µM. Besides, on Survivin120, the “tweezer molecules accommodated on the protein surface (kink at fold tweezer excess)” value is reported as 4–5.
